Measured values: patent US6838436B1, “Inhibitors of proteasomal activity for stimulating bone growth” (Osteoscreen Inc., priority 1998, dated 2005)
Where two headings read alike, the source gives them in different places. Where a SMILES comes first, the peptide text is derived from it. [ ]: non-standard residue; d: D form. The star is where a group is joined. Nva = CCC[C@H](N)C(=O)O; Cbz = O=C(OCc1ccccc1)*; OtBu = CC(C)(C)O*

Columns and labels:
mouse BMP2 promoter = experiment: High throughput screen (ABA assay): BMP2 promoter-luciferase reporter in 2T3-BMP-2-LUC osteoblast cells; type: cell-based; conditions: for activity in the high through-put assay compared with simvastatin: Example 6; for EC50: read-out: Luciferase Activity (ED50-μM)
Source text: 1995, the entire contents of which are incorporated herein by reference. This assay is also described as a portion of a study of immortalized murine osteoblasts (derived from a mouse expressing a transgene composed of a BMP2 promoter driving expression of T-antigen) in Ghosh-Choudhery, N., et al., Endocrinology (1996) 137:331-39. In this study, the immortalized cells were stably transfected with a plasmid containing a luciferase reporter gene driven by a mouse BMP2 promoter (−2736/114 bp), and responded in a dose-dependent manner to recombinant human BMP2.
Briefly, the assay utilizes cells transformed permanently or transiently with constructs in which the promoter of a bone morphogenetic protein, specifically BMP2 or BMP4, is coupled to a reporter gene, typically luciferase. These transformed cells are then evaluated for the production of the reporter gene product; compounds that activate the BMP promoter will drive production of the reporter protein, which can be readily assayed. Many thousands of compounds have been subjected to this rapid screening technique, and only a very small percentage are able to elicit a level of expression of reporter gene 5-fold greater than that produced by vehicle. […] The active compounds (“BMP promoter-active compounds” or “active compounds”) are useful in promoting bone or cartilage growth, and thus in the treatment of vertebrates in need of bone or cartilage growth.
Thousands of compounds have been tested in the assay system set forth in U.S. Ser. No. 08/458,434, filed 2 Jun. 1995, and incorporated herein by reference. […] In this screen, the standard positive control was the compound 59-0008 (also denoted “OS8”), which is of the formula: [drawing 22]
In more detail, the 2T3-BMP-2-LUC cells, a stably transformed osteoblast cell line described in Ghosh-Choudhury et al. Endocrinology (1996) 137:331-39, referenced above, was employed. The cells were cultured using α-MEM, 10% FCS with 1% penicillin/streptomycin and 1% glutamine (“plating medium”), and were split 1:5 once per week. For the assay, the cells were resuspended in a plating medium containing 4% FCS, plated in microtiter plates at a concentration of 5×10^3 cells (in 50 μl)/well, and incubated for 24 hours at 37° C. in 5% CO2. To initiate the assay, 50 μl of the test compound or the control in DMSO was added at 2× concentration to each well, so that the final volume was 100 μl. The final serum concentration was 2% FCS, and the final DMSO concentration was 1%. Compound 59-0008 (10 μM) was used as a positive control.
The treated cells were incubated for 24 hours at 37° C. and 5% CO2. The medium was then removed, and the cells were rinsed three times with PBS. After removal of excess PBS, 25 μl of 1× cell culture lysing reagent (Promega #E153A) was added to each well and incubated for at least ten minutes. Optionally, the plates/samples could be frozen at this point. To each well was added 50 μl of luciferase substrate (Promega #E152A; 10 ml Promega luciferase assay buffer per 7 mg Promega luciferase assay substrate). Luminescence was measured on an automated 96-well luminometer, and was expressed as either picograms of luciferase activity per well or as picograms of luciferase activity per microgram of protein.
Accordingly, other tested compounds can be evaluated at various concentrations, and the results compared to the results obtained for 59-0008 at 10 μM (which value would be normalized to 100). Alternatively, the reactivity of a compound to be tested can be compared directly to a negative control containing no compound.

[1] = system: hair follicles of skin explants; experiment: Cultured skin explants from 5 day old mice, hair follicle diameter and elongation (Example 11); type: cell-based, C3H/HeS1c mice; conditions: 72 hours
Procedure: Cultured skin explants from 5 day old mice cultured for 72 hours were treated with proteasome inhibitors, non-proteasomal proteases and non-proteasomal inhibitors of NF-κB and effects on hair follicle diameter and follicle elongation were determined according to the method of Kamiya, T., et al., J Derm Sci (1998) 17:54-60. Skin slices from the dorsal skin of 5 day old C3H/HeS1c mice were cultured in 1 ml of αMEM and 0.1% BSA for 72 hours and then assessed for changes in hair follicle diameter and hair elongation under an inverted microscope, using image analysis. […] Thus, the chymotrypsin-like activity of the proteasome is the catalytic component of the proteasome that is responsible for the effects of these compounds on hair follicle differentiation and hair growth. Only proteasome inhibitors had discernable effects on these parameters.

hair follicles = experiment: Induction of anagen in hair follicles in vivo (Example 12); parameters: species or system C57 black mice; conditions: for hair follicle differentiation in vivo: examined 16 days later
Procedure: Inhibitors of the proteasomal chymotrypsin-like activity were treated for their capacity to induce transit of hair follicles into anagen in vivo in C57 black mice eight weeks of age.

Compound | activity in the high through-put assay compared with simvastatin (mouse BMP2 promoter) | Luciferase activity/well (mouse BMP2 promoter; dose 0.000625 μM) | Luciferase activity/well (mouse BMP2 promoter; dose 0.00125 μM) | Luciferase activity/well (mouse BMP2 promoter; dose 0.0025 μM) | Luciferase activity/well (mouse BMP2 promoter; dose 0.005 μM) | Luciferase activity/well (mouse BMP2 promoter; dose 0.01 μM) | Luciferase activity/well (mouse BMP2 promoter; dose 0.02 μM) | Luciferase activity/well (mouse BMP2 promoter; dose 0.04 μM) | Luciferase activity/well (mouse BMP2 promoter; dose 0.08 μM) | response in the high throughput luciferase screen (mouse BMP2 promoter) | EC50 (mouse BMP2 promoter; Mus musculus, Osteoblast) | further results
CC[C@H](C)[C@H](NC(=O)[C@H]([C@@H](C)CC)N(C)C(C)=O)C(=O)N[C@H](C(=O)N[C@@H](CC(C)C)C(=O)[C@@]1(C)CO1)[C@@H](C)O [Epoxomicin] | more active than simvastatin | 0.07 | 0.07 | 0.08 | 0.10 | 0.14 | 0.17 | 0.20 | 0.21 |  |  | effective in concentrations as low as [1]: 12.5 nM; hair follicle differentiation in vivo (hair follicles; dose not given, subcutaneously in the scalp daily for 5 days): increased hair follicle differentiation in vivo
CC(=O)N[C@@H](CSC(=O)[C@]1([C@@H](O)C(C)C)NC(=O)[C@H](C)[C@@H]1O)C(=O)O [Lactacystin, lactacystin] |  |  |  |  |  |  |  |  |  | Positive responses | 1 µM | effect on hair follicle differentiation and hair growth ([1]; dose not given): effectively stimulated hair follicle differentiation and enhanced hair growth
CCC[C@@H](C=O)NC(=O)[C@H](CC(C)C)NC(=O)[C@H](CC(C)C)NC(=O)OCc1ccccc1 [MG-115, N-carbobenzoyl-Leu-Leu-Nva-CHO] (Cbz-Leu-Leu-[Nva]-aldehyde) |  |  |  |  |  |  |  |  |  | high activity | 2 µM | 
CC(C)C[C@@H](C=O)NC(=O)[C@@H](CC(C)C)NC(=O)[C@H](CC(C)C)NC(=O)OCc1ccccc1 [MG-132, N-carbobenzoyl-Leu-Leu-Leu-CHO] (Cbz-Leu-[dL]-Leu-aldehyde) |  |  |  |  |  |  |  |  |  | high activity | 0.25 µM | effect on hair follicle differentiation and hair growth ([1]; 0.5 μM): effectively stimulated hair follicle differentiation and enhanced hair growth
CC[C@H](C)[C@H](NC(=O)OCc1ccccc1)C(=O)N[C@@H](CCC(=O)OC(C)(C)C)C(=O)N[C@@H](C)C(=O)N[C@H](C=O)CC(C)C [PSI, N-carbobenzoyl-Ile-Glu-(OtBu)-Ala-Leu-CHO] (Cbz-IE(OtBu)AL-aldehyde) | more active than simvastatin | 0.07 | 0.08 | 0.07 | 0.08 | 0.08 | 0.09 | 0.12 | 0.18 |  | 0.05 µM | effect on hair follicle differentiation and hair growth ([1]; 12.5 nM): effectively stimulated hair follicle differentiation and enhanced hair growth; hair follicle differentiation in vivo (hair follicles; 5 mg/kg/day subcutaneously in the scalp daily for 5 days): increased hair follicle differentiation in vivo
simvastatin |  | 0.07 | 0.07 | 0.065 | 0.07 | 0.07 | 0.07 | 0.07 | 0.07 | good response |  | Luciferase activity/well (mouse BMP2 promoter; dose 0.16 μM): 0.07; Luciferase activity/well (mouse BMP2 promoter; dose 0.32 μM): 0.07; Luciferase activity/well (mouse BMP2 promoter; dose 0.625 μM): 0.09; Luciferase activity/well (mouse BMP2 promoter; dose 1.25 μM): 0.11; Luciferase activity/well (mouse BMP2 promoter; dose 2.5 μM): 0.14; Luciferase activity/well (mouse BMP2 promoter; dose 5 μM): 0.15; Luciferase activity/well (mouse BMP2 promoter; dose 10 μM): 0.15; EC50 (mouse BMP2 promoter): 0.2 µM; effect on hair follicles (hair follicles; injected locally into the subcutaneous tissue in sufficient concentrations to cause local periosteal bone formation): had no effect on hair follicles
